The compounds below were run on Plasmodium falciparum Dd2 asexual blood stage.

SMILES	IC50
C=C(C)[C@@H]1CC[C@]2(C(=O)O)CC[C@]3(C)[C@H](CC[C@@H]4[C@@]5(C)CC[C@H](O)C(C)(C)[C@@H]5CC[C@]43C)[C@@H]12	> 5 µM
NC[C@H]1O[C@H](O[C@H]2[C@H](O)[C@@H](O[C@H]3O[C@H](CO)[C@@H](O)[C@H](N)[C@H]3O)[C@H](N)C[C@@H]2N)[C@H](N)C[C@@H]1O	> 5 µM
NC1(C(=O)O)CCP(=O)(O)CC1 (centres undefined)	> 5 µM
CCc1cc(CCCOc2c(C)cc(-c3noc(C(F)(F)F)n3)cc2C)on1	> 5 µM
CCN1CCN(Cc2nc3ccc([N+](=O)[O-])cc3c(=O)n2-c2ccccc2F)CC1	> 5 µM
COc1ccc(C[C@@H](C)[C@@H](C)Cc2ccc(OC)c(OC)c2)cc1OC	> 5 µM
COc1ccccc1CN[C@H]1C2CCN(CC2)[C@H]1C(c1ccccc1)c1ccccc1	2.23 µM
CC(=O)O[C@H]1C[C@@]2(C)[C@@H](C[C@@H](O)[C@H]3[C@@]4(C)CC[C@@H](O)[C@@H](C)[C@@H]4CC[C@@]32C)/C1=C(\CCC=C(C)C)C(=O)O	> 5 µM
CCCCCOc1ccc(/C=C2\Oc3c(ccc(O)c3O)C2=O)c(O)c1	> 5 µM
O=C(NN1C(=O)[C@@H]2C3C=CC([C@H]4C[C@@H]34)[C@@H]2C1=O)c1ccc(C(F)(F)F)cc1	> 5 µM
C[C@@H](c1nc(-c2ccc(C#N)cc2)cs1)[C@](O)(Cn1cncn1)c1ccc(F)cc1F	> 5 µM
O=C(NC12CC3CC(CC(C3)C1)C2)c1cc2ccccc2[nH]1	> 5 µM
Cc1cc(CCOc2c(C)cc(-c3nnn(C)n3)cc2C)on1	> 5 µM
CC(C)CCN1C(=O)C(C2=NS(=O)(=O)c3cc(NS(C)(=O)=O)ccc3N2)=C(O)[C@@H]2[C@H]3CC[C@H](C3)[C@@H]21	> 5 µM
Cc1ccc(C)c(OCCCCCCN2C[C@H](O)[C@@H](O)[C@H](O)[C@H]2CO)c1	> 5 µM
O=C(Nc1ccc(Cl)c(C(F)(F)F)c1)C(CCCl)C(=O)Nc1ccc(Cl)c(C(F)(F)F)c1	> 5 µM
O=S(=O)(NCB(O)O)c1ccc(-c2nnn[nH]2)cc1C(F)(F)F	> 5 µM
O=C(/C=C/n1cnc(-c2cc(C(F)(F)F)cc(C(F)(F)F)c2)n1)NNc1cnccn1	> 5 µM
CCCC1(C2CC2)c2cc(Cl)ccc2NC(=O)N1C (centres undefined)	> 5 µM
O=C(O)/C=C/C=C/c1cccc(Oc2cc(Cl)cc(Cl)c2)c1	> 5 µM
C[C@H](Cn1cnc2c(N)ncnc21)OCP(=O)(O)O	> 5 µM

SMILES	IC50
[N-]=[N+]=N[C@H]1C[C@H](n2ccc(=O)[nH]c2=O)O[C@@H]1CO	> 5 µM
CC(=O)NC[C@H]1CN(c2ccc(N3CCSCC3)c(F)c2)C(=O)O1	> 5 µM
COC(=O)Nc1nc2ccccc2[nH]1	> 5 µM
CC(N)C(=O)NC(CCCCN)C(=O)NC(CCCNC(=N)N)C(=O)NC(Cc1c[nH]cn1)C(=O)NC(Cc1c[nH]cn1)C(=O)NCC(=O)NC(Cc1ccc(O)cc1)C(=O)NC(CCCCN)C(=O)NC(CCCNC(=N)N)C(=O)NC(CCCCN)C(=O)NC(Cc1ccccc1)C(=O)NC(Cc1c[nH]cn1)C(N)=O (centres undefined)	> 5 µM
CN1C(=O)C(c2ccccc2)C(=O)N(c2ccccc2)c2cc(C(F)(F)F)ccc21 (centres undefined)	> 5 µM
CC1(C)[C@H](C(=O)O)N2C(=O)C[C@H]2S1(=O)=O	> 5 µM
CN(C)c1[nH]c(=O)ncc1F	> 5 µM
NC(=O)[C@@H]1CC[C@@H]2CN1C(=O)N2OS(=O)(=O)O	> 5 µM
NC[C@H]1OB(O)c2c(OCCCO)cccc21	> 5 µM
COc1cc(Cc2cnc(N)nc2N)cc(OC)c1OC	> 5 µM
CC1(C)C[C@H]1C(=O)N/C(=C\CCCCSC[C@@H](N)C(=O)O)C(=O)O	> 5 µM
Nc1nnc(-c2ccc(Cl)cc2)s1	> 5 µM
Cc1cc(C)n2nc(C(=O)NS(=O)(=O)c3c(C)cccc3OC(F)(F)F)nc2n1	> 5 µM
CCOC(=O)/C=C/[C@H](C[C@@H]1CCNC1=O)NC(=O)[C@H](CC)n1cccc(NC(=O)c2cc(C)on2)c1=O	> 5 µM
CC(C)C(=O)N[C@H]1[C@H]([C@H](O)[C@H](O)CO)OC(C(=O)O)=C[C@@H]1N=[N+]=[N-]	> 5 µM
O=c1oc2ccc(Br)cc2cc1CSc1ncc[nH]1	> 5 µM
Nc1ccc2oc(=O)ccc2c1I	> 5 µM
NCc1ccc(S(N)(=O)=O)cc1	> 5 µM
CCC(C)n1ncn(-c2ccc(N3CCN(c4ccc(OCC5COC(Cn6cncn6)(c6ccc(Cl)cc6Cl)O5)cc4)CC3)cc2)c1=O (centres undefined)	4.35 µM
Cc1ncc([N+](=O)[O-])n1CC(C)O (centres undefined)	> 5 µM

More lines, now with the values ahead:

IC50	SMILES
> 5 µM	Cc1cc(-c2ccccc2)c(C(=O)C(=O)Nc2ccc(N3CCN(c4ncc(F)cn4)CC3)cc2)n1C
> 5 µM	C[C@@H](O)[C@H](N)C(=O)NS(=O)(=O)c1cccc(-c2ccc3[nH]ncc3c2)c1
> 5 µM	CCc1nc2ccccn2c1C(=O)NCc1ccccc1
> 5 µM	CCc1cc(CCC(=O)Nc2ccccc2O)c(=O)[nH]c1C
> 5 µM	COCCn1cnc2c(=O)[nH]c(Nc3ccccc3)nc21
> 5 µM	NC(=O)c1ccccc1NC(=O)c1ccc(C(=O)Nc2ccccc2C(N)=O)cc1
> 5 µM	O=C(O)c1cc(-c2ccccc2)nc2ccccc12
> 5 µM	O=S(=O)(Nc1ccccc1)c1ccc(NC(=S)Nc2ccccc2)cc1
> 5 µM	COc1cc(NC(=O)CN2C(=O)NC(c3ccccc3)(c3ccccc3)C2=O)cc(OC)c1
> 5 µM	Nc1nc(C(F)(F)F)cc2c1[nH]c(=O)n2Cc1ccccc1
> 5 µM	CC1(C)Cc2c(C#N)c(SCCc3ccccc3)nc(N3CCOCC3)c2CO1
> 5 µM	FC(F)(F)Oc1ccc(Nc2ccc3cccc(Cl)c3n2)cc1
> 5 µM	Oc1ccc2[nH]c(-c3ccccc3)nc2c1
> 5 µM	O=C(O)c1ccccc1Sc1ncnc2sc3c(c12)CCC3
> 5 µM	CC(C)(C)c1ccc(OCCn2nc(C(=O)O)c3ccccc3c2=O)cc1
> 5 µM	O=C(Nc1ncc(Cc2cccc3ccccc23)s1)C1CCCCC1
> 5 µM	COC(=O)Nc1nc2cc(Sc3ccccc3)ccc2[nH]1
> 5 µM	CC[C@H](CO)Nc1nc(NCc2ccccc2)c2ncn(C(C)C)c2n1
> 5 µM	Nc1nc(O)c(Br)c(-c2ccccc2)n1
> 5 µM	C=C(C)n1c(=O)n(Cc2ccccc2C)c2ccccc21

IC50	SMILES
> 5 µM	Oc1ccc(NCc2ccccc2OCc2ccccc2)cc1
> 5 µM	Nc1nc(N)c2c(Sc3ccccc3)cccc2n1
> 5 µM	OCCC#Cc1nc(-c2ccc(F)cc2)c(-c2ccncc2)n1CCCc1ccccc1
> 5 µM	CN(C)CC(=O)Nc1ccc2[nH]c(=O)c3ccccc3c2c1
> 5 µM	CCc1cc(Nc2cc(=O)n(CCN3CCN(C(=O)c4ccccc4)CC3)c(=O)[nH]2)ccc1C
> 5 µM	CCc1ccc(C2CC(C(F)(F)F)n3ncc(C(=O)NCc4ccc(OC)cc4)c3N2)cc1 (centres undefined)
> 5 µM	CCNC(=O)Nc1cc(-c2ccccc2)c(-c2cncc(C(=O)O)c2)cn1
> 5 µM	Cc1cc(Nc2ccc(F)cc2)nc(SCc2nc3ccccc3[nH]2)n1
> 5 µM	COc1ccc(-n2cnc3cc(NCc4ccco4)ccc32)cc1
> 5 µM	CCc1cc(Cc2cnc(N)nc2N)cc2c1N(C)CCC2C (centres undefined)
> 5 µM	COc1ccc(C2CNC(=O)C2)cc1OC1CCCC1 (centres undefined)
> 5 µM	Cc1ccn2c(C(=O)NCc3ccccc3)c(C)nc2c1
> 5 µM	CN(O)C(=O)c1cc2c(CN3CCC[C@H]3C(N)=O)cn(Cc3ccc(F)cc3)c2cn1
> 5 µM	Cc1cccc(CC(=O)N[C@H]2CCOC2=O)c1
> 5 µM	CCOc1ccc(/C=N/NC(=O)C2CC2c2ccc(C(C)(C)C)cc2)cc1OCC (centres undefined)
> 5 µM	O=C(O)C(Cc1c[nH]c2ccccc12)N1C(=O)c2ccccc2C1=O (centres undefined)
> 5 µM	COc1ccc(COc2cc3oc(=O)c4cc(C(C)O)ccc4c3cc2OC)cc1 (centres undefined)
4.29 µM	O=C1c2cccc3cccc(c23)C(=O)N1CC1CO1 (centres undefined)
> 5 µM	CC(C)n1cnc2c(NCc3ccccc3)nc(NCc3ccccc3)nc21
> 5 µM	CCNC(=O)Nc1cc2c(-c3ccnc(C)c3)ccc(CNC(=O)OC)c2cn1

IC50	SMILES
> 5 µM	O=C(NC1CCCc2c1[nH]c1ccc(Cl)cc21)c1ccccn1 (centres undefined)
> 5 µM	O=C(NCc1ccc2c3c(cccc13)C(=O)N2)c1cccs1
> 5 µM	O=C(NCc1ncc(C(F)(F)F)cc1Cl)c1c(Cl)cccc1Cl
> 5 µM	Cc1cc(NS(=O)(=O)c2ccc(-c3ccc(F)cc3F)cc2)no1
> 5 µM	c1ccc(Cn2c(-c3ccccn3)nc3ccccc32)cc1
> 5 µM	CC(C)(C)NC(=O)[C@@H]1C[C@@H]2CCCC[C@@H]2CN1C[C@@H](O)[C@H](Cc1ccccc1)NC(=O)[C@H](CC(N)=O)NC(=O)c1ccc2ccccc2n1
> 5 µM	Cc1ccc(N2CCC(CCOc3ccc(S(C)(=O)=O)cc3)CC2)nn1
> 5 µM	O=[N+]([O-])c1cn2c(n1)OC[C@@H](OCc1ccc(OC(F)(F)F)cc1)C2
> 5 µM	O=P(O)(O)C(CCCc1cccc(Oc2ccccc2)c1)S(=O)(=O)O (centres undefined)
> 5 µM	O=C(Nc1ccccc1C(=O)O)c1cccc(Oc2ccccc2)c1
> 5 µM	CCN(CC)S(=O)(=O)c1ccc(Cl)c(C(=O)Nc2sc3c(c2C#N)CCCC3)c1
> 5 µM	CCc1nc2ccc(Cl)cn2c1C(=O)NCc1ccc(N2CCC(c3ccc(OC(F)(F)F)cc3)CC2)cc1
> 5 µM	Cc1c(N)cccc1Cn1ccc(OCCc2cccs2)cc1=O
> 5 µM	O=C(O)c1ccc(-n2nc(-c3ccccc3O)nc2-c2ccccc2O)cc1
> 5 µM	CC(=O)Oc1ccccc1C(=O)Nc1ncc([N+](=O)[O-])s1
> 5 µM	O=c1cc(OCc2ccccc2)ccn1Cc1ccccc1
> 5 µM	C[C@H](c1cccc2ccccc12)N(C)Cc1ccccc1
> 5 µM	Cc1c(F)cccc1NC(=O)Nc1ccc(Cl)c(S(=O)(=O)[C@H]2CCCNC2)c1O
